Results on six compounds are retold here after US10787424B2, “Oxopiperazine helix mimetics for control of Hypoxia-Inducible gene expression” (NEW YORK UNIVERSITY, priority 2014, dated 2020).

One assay addresses T1, p300-CH1 domain (Homo sapiens, UniProt Q09472).
T1 construct: human p300 CH1 domain (amino acid residues 323-423); GST (N, cleaved yes); made in house; host or cells: E. coli BL21(DE3)
To be noted: 15N-labeled CH1; earlier study; cited from earlier work.

In assay [1] the target is T2, human p300 CH1 domain (p300-CH1) (Homo sapiens, UniProt Q09472).
T2 construct: human p300 CH1 domain (amino acid residues 323-423); GST (N, cleaved yes); made in house; host or cells: E. coli BL21(DE3)
T2 sequence (Q09472 323-423): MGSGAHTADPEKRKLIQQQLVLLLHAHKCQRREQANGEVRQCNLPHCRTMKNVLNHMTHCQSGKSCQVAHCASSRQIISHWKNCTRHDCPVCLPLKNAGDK
Briefly: Tryptophan fluorescence binding assay for p300-CH1. From the text:
The DNA sequence of the human p300 CH1 domain (amino acid residues 323-423) was subcloned into a pUC57 plasmid by Genscript, Inc. After transformation of JM109 bacteria (Promega) with the plasmid, it was amplified and purified. Then the gene of interest was subcloned between BamHI and EcoRI restriction sites of pGEX-4T-2 expression vector (Amersham).
The pGEX-4T-2-p300 fusion vector was transformed into BL21(DE3) competent E.coli (Novagen) in M9 minimal media with ^15NH4Cl as the primary nitrogen source. Protein production was induced with 1 mM IPTG at OD600 of 1 for 16 hours at 15° C. Production of the desired p300-CH1-GST fusion product was verified by SDS-PAGE. Bacteria were harvested and resuspended in the lysis buffer with 20 mM Phosphate buffer (Research Products International, Corp.), 100 μM DTT (Fisher), 100 μM ZnSO4 (Sigma), 0.5% TritonX 100 (Sigma), […] Pepstatin A (Research Products International, Corp.), […] Leupeptin A (Research Products International, Corp.), 500 μM PMSF (Sigma), and 0.5% glycerol at pH 8.0. Pellets were lysed by sonication and centrifuged at 4° C. and 20,000 rpm for 20 minutes. Fusion protein was collected from the bacterial supernatant and purified by affinity chromatography using glutathione Sepharose 4B beads (Amersham) prepared according to the manufacturer's directions. GST-tag was cleaved by thrombin and protein was eluted from resin. Collected fractions were assayed by SDS-PAGE gel; pooled fractions were treated with protease inhibitor cocktail (Sigma) and against a buffer containing 10 mM Tris, 50 mM NaCl, 2 mM DTT (Fisher), and 3 equivalents ZnSO4 at pH 8.0 to ensure proper folding (vide supra).
Relative affinities of OHMs for p300-CH1 were determined using a tryptophan fluorescence binding assay. Spectra were recorded on a QuantaMaster 40 spectrofluorometer (Photon Technology International) in a 10 mm quartz fluorometer cell at 25° C. with 4 nm excitation and 4 nm emission slit widths from 200 to 400 nm at intervals of 1 nm/s. Samples were excited at 295 nm and fluorescence emission was measured from 200-400 nm and recorded at 335 nm. OHM stock solutions were prepared in DMSO. Aliquots containing 1 μL DMSO stocks were added to 400 μL of 1 μM p300-CH1 in 50 mM Tris and 100 μM NaCl (pH 8.0). After each addition, the sample was allowed to equilibrate for 5 minutes before UV analysis. Background absorbance and sample dilution effects were corrected by titrating DMSO into p300-CH1 in an analogous manner. Final fluorescence is reported as the absolute value of [(F1-F0)/F1]*100, where F1 is the final fluorescence upon titration, and F0 is the fluorescence of the blank DMSO titration. EC50 values for each peptide were determined by fitting the experimental data to a sigmoidal dose-response nonlinear regression model in GraphPad Prism 5.0, and the dissociation constants, KD, were obtained from equation (2). KD=(RT×(1−FSB)+LST×FSB^2)/FSB−LST (2)
where: • RT=Total concentration of p300-CH1 • LST=Total concentration of fluorescent peptide • FSB=Fraction of bound fluorescent peptide Results and Discussion of Examples 1-8

Assay [2] deals with triple-negative breast cancer cell line MDA-MB-231 xenograft. To be noted: MDA-MB-231 mouse xenograft; earlier study; cited from earlier work.
In assay [3] the test system is over 28,000 transcripts (genome-wide off-target regulation). The note with it: microarray gene expression profiling; earlier study; cited from earlier work.
The next assay concerns HIF signaling. To be noted: cell culture, at micromolar levels; earlier study; cited from earlier work.
Where [4] appears, read: binding affinity for p300-CH1, intrinsic tryptophan fluorescence assay (Table 8), read-out: Kd.

Read-outs that look alike come from different tables or passages of the source. Where only a bound is given, the exact number is not on record here.

T1 sequence (Q09472 323-423): as above

As to `CC(C)C[C@@H]1NCCN([C@@H](CC(C)C)C(=O)N2CCN([C@@H](CCC(N)=O)C(N)=O)C(=O)[C@@H]2C)C1=O` [OHM 21, LLAQ-NH2], at p300-CH1 domain, the “HSQC resonance shifts on addition of compound” value is “consistent shifts in resonances of residues corresponding to the HIF1α816-824 binding pocket”. For the same compound, in assay [1] (setting [4]), the Kd (in general, the free concentration of one partner at which half of the binding sites on the other are occupied at equilibrium, for simple one-to-one binding) amounted to 530 ± 140 nM. The “effect on tumor levels” value in assay [2] is on record as “reduced tumor levels”. Also, the “specificity on genome-wide scale” value in assay [3] was “remarkably specific”. The “downregulation of HIF signaling” value in the assay with HIF signaling was “efficiently downregulated HIF signaling”.

Take `CC(C)C[C@@H]1NCCN([C@@H](C)C(=O)N2CCN([C@@H](CCC(N)=O)C(N)=O)C(=O)[C@@H]2C)C1=O` [OHM 22, LAAQ]: the Kd in assay [1] (setting [4]) is more than 10000 nM; in assay [1] (p300-CH1, text value, read-out: Kd for p300-CH1), more than 30000 nM.

`CCCC[C@@H](C(=O)N1CCN([C@@H](CCC(N)=O)C(N)=O)C(=O)[C@@H]1C)N1CCN[C@@H](CC(C)C)C1=O` [OHM 23, L(Nle)AQ]: the Kd worked out at 30 ± 10 nM in assay [1] (setting [4]) and 30 ± 10 nM in assay [1] (cross-specificity, p300-CH1 (Table 9), read-out: p300 Kd). Also, the “enhancement in binding affinity over parent OHM 21” value in assay [1] (p300, relative to OHM 21) amounted to 13 fold.

Consider `CC(C)CC[C@@H]1NCCN([C@@H](CCC(C)C)C(=O)N2CCN([C@@H](CCC(N)=O)C(N)=O)C(=O)[C@@H]2C)C1=O` [OHM 25, (Hle)(Hle)AQ], for which the Kd in assay [1] (setting [4]) is 160 ± 60 nM.

As to `CC(C)C[C@@H]1NCCN([C@@H](CC(C)C)C(=O)N2CCN([C@@H](C)C(N)=O)C(=O)[C@@H]2C)C1=O` [OHM 26], the Kd in assay [1] (setting [4]) was 620 ± 270 nM.

For `C[C@@H]1NCCN([C@@H](C)C(=O)N2CCN([C@@H](C)C(N)=O)C(=O)[C@@H]2C)C1=O` [OHM 27], the Kd in assay [1] (setting [4]) is more than 10000 nM.
